Like-named read-outs stand apart in the source and are kept apart here.
Assays:
human L-FABP [1] = biological target: T1, human L-FABP (Homo sapiens, UniProt P07148); experiment: Fluorescent binding cavity probe binding to L-FABP
T1 sequence (P07148 1-127): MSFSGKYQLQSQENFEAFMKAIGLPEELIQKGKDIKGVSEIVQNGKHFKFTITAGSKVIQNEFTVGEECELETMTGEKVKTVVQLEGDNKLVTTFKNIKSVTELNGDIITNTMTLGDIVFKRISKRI

[2] = biological target: T2, human PPARα LBD (aa 196–468) (Homo sapiens, UniProt Q07869); experiment: cis-parinaric acid fluorescence displacement assay with PPARα LBD; settings: cis-parinaric acid (2 μM) displacement, LBD 1 μM; nd = no binding detected; read-out: Ki, PPARαLBD
T2 construct: LBD of human PPARα (aa 196–468); [His]6 (N); made in house; host or cells: E. coli BL21 Codon Plus (DE3)-RIL (plasmid from Krister Bamberg, Astra-Zeneca)
T2 sequence (Q07869 196-468): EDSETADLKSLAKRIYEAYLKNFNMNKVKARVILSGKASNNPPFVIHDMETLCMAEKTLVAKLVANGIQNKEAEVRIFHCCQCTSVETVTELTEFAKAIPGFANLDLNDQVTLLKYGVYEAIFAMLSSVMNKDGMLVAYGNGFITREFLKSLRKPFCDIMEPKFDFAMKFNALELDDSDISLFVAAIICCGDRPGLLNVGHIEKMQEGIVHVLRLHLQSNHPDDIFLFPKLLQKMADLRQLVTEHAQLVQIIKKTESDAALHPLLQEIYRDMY
Procedure: (§1) Proteins were resolved using a step gradient of 0–300 mM imidazole in buffer A (50 mM Tris-HCl, pH 8.0; 500 mM NaCl; 0.5 mM ethylenediaminetetraacetic acid (EDTA); 1 mM dithiothreitol (DTT); 5% (v/v) glycerol) at a flow rate of 5 mL/min (4 column volumes (CVs) washout unbound sample; 0%–30% imidazole over 5 CVs; hold 30% for 2 CVs; 30%–100% imidazole over 5 CVs; hold 100% for 3 CVs).

human L-FABP [3] = biological target: T1, human L-FABP; experiment: ANS fluorescence displacement assay with L-FABP
[4] = biological target: T3, human PPARδ LBD (aa 171–441) (Homo sapiens, UniProt Q03181); experiment: cis-parinaric acid fluorescence displacement assay with PPARδ LBD; settings: cis-parinaric acid (2 μM) displacement, LBD 1 μM; nd = no binding detected; read-out: Ki, PPARδLBD
T3 construct: human PPARδ (aa 171–441); [His]6 (N); made in house; host or cells: E. coli BL21 Codon Plus (DE3)-RIL (plasmid from William Hunter, University of Dundee)
T3 sequence (Q03181 171-441): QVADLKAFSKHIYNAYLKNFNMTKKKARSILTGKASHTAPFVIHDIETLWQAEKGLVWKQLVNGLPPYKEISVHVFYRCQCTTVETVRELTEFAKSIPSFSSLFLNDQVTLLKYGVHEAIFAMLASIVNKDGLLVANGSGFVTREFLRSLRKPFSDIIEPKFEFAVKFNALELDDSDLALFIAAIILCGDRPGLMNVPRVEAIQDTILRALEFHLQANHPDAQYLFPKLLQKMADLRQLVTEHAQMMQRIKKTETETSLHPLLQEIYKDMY
Procedure: as §1

human L-FABP [5] = biological target: T1, human L-FABP; experiment: cis-parinaric acid fluorescence displacement assay with L-FABP; settings: for displacement of cis-parinaric acid fluorescence from L-FABP: extent of probe displacement by drug titration
human L-FABP [6] = biological target: T1, human L-FABP; experiment: Differential scanning calorimetry of L-FABP; design: [His]6 (N); made in house; host or cells: E. coli BL21 Codon Plus (DE3)-RIL; settings: holo-drug L-FABP; apo L-FABP Tm = 80.1; scan rate 0.5°C/min
Procedure: DSC measurements were performed on N-DSC II calorimeter (Calorimetry Sciences Corporation, UT, USA) at a heating rate of 0.5°C/min. For preparation of 250 μM protein sample solutions, L-FABP was extensively buffer exchanged into buffer E (20 mM Tris-HCl pH 8.0) by ultrafiltration using Amicon Ultra 3 K centrifugal concentrators and degassed prior to filling the calorimeter cells. The filtrate from the sample preparation was used as a reference buffer for the DSC measurements. The thermal transition mid-point temperatures (T m) were calculated using CpCalc software (Calorimetry Sciences Corporation, UT, USA).

human L-FABP [7] = biological target: T1, human L-FABP; experiment: Limited proteolysis of L-FABP with trypsin; design: [His]6 (N); made in house; host or cells: E. coli BL21 Codon Plus (DE3)-RIL; settings: drug 0-5 μM, L-FABP 50 μM, 1 hr at 20°C
Procedure: The limited proteolysis of L-FABP (50 μM) with sequencing grade trypsin was carried out in buffer D (20 mM Tris-HCl, pH 8.0; 50 mM NaCl; […]. Apo- or holo-drug (0, 0.1, 0.4, 1.0, 5 μM final drug concentration) protein samples were equilibrated with the drug at 20°C for 15 min before protease was added. Digestion reactions were stopped by the addition of 5 μL of 50 mM phenylmethanesulfonyl fluoride (PMSF) followed by one volume of SDS-PAGE sample buffer (12.5% 0.5 M Tris-HCl pH 6.8; 0.005% bromophenol blue; 10% SDS; 10% glycerol; 2% β-mercaptoethanol) and heated for 2 min at 100°C. Samples were resolved on 4% stacking, 20% resolving polyacrylamide gels at 4°C at a constant voltage of 80 V, using the Laemmli buffer system. Gels were stained with Coomassie Blue G-250 and destained with 50% methanol/10% acetic acid (v/v) solution. Gels were dried between cellulose sheets and scanned at 1200 dpi. Protein bands were quantified densitometrically using LabImage 1D gel analysis software V3.4 (Kapelan GmbH, http://www.kapelan-bioimaging.com/).

PPARαLBD = biological target: T4, PPARαLBD (Homo sapiens, UniProt Q07869); experiment: PPARαLBD protection from limited proteolysis (western blot); settings: PPARαLBD 30 μM, drug 0, 1, 5 μM, trypsin 30 min at 20°C
T4 construct: LBD of human PPARα (aa 196–468); [His]6 (N); made in house; host or cells: E. coli BL21 Codon Plus (DE3)-RIL (plasmid from Krister Bamberg, Astra-Zeneca)
T4 sequence (Q07869 196-468): T2 sequence (Q07869 196-468)
Excerpt: […] […] The reaction was quenched by the addition of PMSF and one volume of SDS-PAGE sample buffer as detailed above. Samples were resolved by 15% resolving SDS-PAGE polyacrylamide gels then transferred to a PVDF membrane and probed with anti-human PPARα antibody (mapping to C-terminal aa 420–468 of the PPARαLBD; cat. no. sc1982 Santa-Cruz Biotechnology, Santa Cruz, CA, USA) by western blotting.

[8] = biological target: T5, human PPARγ LBD (aa 193–475) (Homo sapiens, UniProt P37231); experiment: cis-parinaric acid fluorescence displacement assay with PPARγ LBD; format: binding
T5 construct: human PPARγ (aa 193–475); [His]6 (N); made in house; host or cells: E. coli BL21 Codon Plus (DE3)-RIL (plasmid from Krister Bamberg, Astra-Zeneca)
T5 sequence (P37231 193-475 isoform P37231-2): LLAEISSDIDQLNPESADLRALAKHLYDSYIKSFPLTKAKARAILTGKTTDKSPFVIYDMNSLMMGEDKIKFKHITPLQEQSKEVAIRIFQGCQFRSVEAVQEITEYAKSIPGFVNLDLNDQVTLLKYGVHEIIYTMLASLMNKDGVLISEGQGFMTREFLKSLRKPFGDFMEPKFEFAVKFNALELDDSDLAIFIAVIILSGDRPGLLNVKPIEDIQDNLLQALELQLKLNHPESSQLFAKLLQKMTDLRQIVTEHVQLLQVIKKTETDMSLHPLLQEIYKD
Procedure: as §1

[9] = cis-parinaric acid (2 μM) displacement, LBD 1 μM, nd = no binding detected, read-out: Ki, PPARγLBD

Structure (SMILES)	Ki [2] [nM]	Ki (human L-FABP [3]) [nM]	Ki [4] [nM]	other results
O=S(=O)(O)c1cccc2cccc(Nc3ccccc3)c12	–	–	–	Kd (human L-FABP [1]): 6000 ± 2600 nM
CC(C)(Oc1ccc(C(=O)c2ccc(Cl)cc2)cc1)C(=O)O [Fenofibric acid]	10000 ± 3000	1000 ± 200	49000 ± 4000	–
CCCc1c(OCCCOc2ccc(OCC(=O)O)cc2)ccc(C(C)=O)c1O [L-165,041]	4200 ± 400	1400 ± 600	800 ± 300	Ki (human L-FABP [5]): 2300 nM; displacement of cis-parinaric acid fluorescence from L-FABP (human L-FABP [5]): could not completely displace the cis-parinaric acid fluorescence; Ki [8, 9]: 12000 ± 2100 nM; protection of L-FABP from limited proteolysis (human L-FABP [7]): protects L-FABP from limited proteolysis
CCCCCCCC/C=C\CCCCCCCC(=O)O [Oleate]	210 ± 80	–	1100 ± 260	Ki [8]: 600 ± 15 nM
CN(CCOc1ccc(CC2SC(=O)NC2=O)cc1)c1ccccn1 (centres unmarked) [Rosiglitazone]	–	2800 ± 1100	–	–
Cc1c(C)c2c(c(C)c1O)CCC(C)(COc1ccc(CC3SC(=O)NC3=O)cc1)O2 (centres unmarked) [Troglitazone]	–	1700 ± 500	–	–

Now from value to molecule, other results behind:

Ki [2] [nM]	Ki (human L-FABP [3]) [nM]	Ki [4] [nM]	Structure (SMILES)	other results
–	1600 ± 700	–	CN(CCOc1ccc(C[C@H](Nc2ccccc2C(=O)c2ccccc2)C(=O)O)cc1)c1ccccn1 [GW1929]	–
–	320 ± 130	–	CC(C)(Sc1ccc(CCN(CCCCC2CCCCC2)C(=O)NC2CCCCC2)cc1)C(=O)O [GW7647]	Ki (human L-FABP [5]): 550 nM; displacement of cis-parinaric acid fluorescence from L-FABP (human L-FABP [5]): could not completely displace the cis-parinaric acid fluorescence; thermal transition mid-point temperature (Tm) of L-FABP in complex with drug (human L-FABP [6]): 86.7 °C; protection of L-FABP from limited proteolysis (human L-FABP [7]): afforded more resistance to proteolysis; protection of PPARαLBD from limited proteolysis (PPARαLBD): afforded protection to the PPARαLBD against proteolysis
–	20000 ± 3800	23000 ± 4000	Cc1nc(-c2ccc(C(F)(F)F)cc2)sc1C(=O)NCc1ccc(OC(C)(C)C(=O)O)cc1 [GW590735]	Ki [8, 9]: 4400 ± 2300 nM

From publication PMC3588188, “Interactions between Human Liver Fatty Acid Binding Protein and Peroxisome Proliferator Activated Receptor Selective Drugs” (PPAR Research, 2013)
